Where a name gives a salt, the structure may show the parent alone.
- melting point: 210 to 212 °C (dec.)
SMILES: COc1cc2nncc(C(C#N)C3=NC(C)(C)CN3C(C)C)c2cc1OC (stereo not shown) (as salt: hydrochloride) [Compound 110, (4,5-Dihydro-4,4-dimethyl-1-isopropyl-1H-imidazol-2-yl) (6,7-dimethoxycinnolin-4-yl)-acetonitrile hydrochloride]
